Results on 32 molecules are retold here after patent US20260001889A1, “COMPOSITIONS USEFUL FOR MODULATING SPLICING” (Skyhawk Therapeutics, Inc., priority 2022, published 2026).

The first assay deals with ATXN3-HiBiT protein. Briefly: ATXN3 Total Protein Assay (Kelly-ATXN3-HiBiT luminescence). The class given is cell-based. The settings on record: Kelly-ATXN3-HiBiT cells, 48 h after addition of compound. The source says: Example 36: ATXN3 Total Protein Assay
To monitor ATXN3 protein levels by luminescence, a Kelly-ATXN3-HiBiT cell line with homozygous knock-in of HiBiT at the C-terminus of the endogenous ATXN3 gene was used (knock-in of the HiBiT-tag coding sequence SEQ ID NO. 14: 5′[…]3′ into exon 11 of ATXN3-position 1114 of ATXN3 RefSeq NM_004993.6). Manipulations of the Kelly-ATXN3-HiBiT cell line that result in downregulation of the ATXN3-HiBiT protein (through modulation of ATXN3-HiBiT pre-mRNA splicing) can be followed by monitoring the luminescence signal of the HiBiT tag using the Nano Glo HiBiT Lytic Detection System (Promega, #N3050). Kelly-ATXN3-HiBiT cells were maintained in RPMI 1640 w/Glutamax (Gibco, #61870010), 10% FBS (Sigma Aldrich, #F8687), 1% Penicillin/Streptomycin (Gibco, #15140-122) at 37° C., 5% CO2. To assess HiBiT-luminescence signal upon compound treatment, 2000 Kelly-ATXN3-HiBiT cells were seeded per well in 384 plate format. Compounds were added 24 h after seeding. ATXN3-HiBiT-luminescence signal was read out 48 h after addition of the compound using the Nano Glo HiBiT Lytic Detection System (Promega, #N3050) according to the manufacturer's instructions. To control for cell viability, an identically prepared sister plate was read out with the CellTiter-Glo® 2.0 Assay (Promega, #G9243) according to the manufacturer's instructions. Fold changes of ATXN3-HiBiT-luminescence and of CellTiter-Glo viability signals were calculated relative to a DMSO control condition.
(In general: HiBiT is a short tag that completes a luciferase, so light tracks the accessible tagged protein.)
`[2H]C([2H])(c1oc2c(NCc3cccs3)cc(Cl)nc2c1C#C)[C@@H](N)COC` [Compound 330, 2-[(R)-2-amino-3-methoxy(1,1- ^2H2)propyl]-5-chloro-3-ethynyl-7-thenylamino-1-oxa-4-azaindene] showed an EC50 of 1e-05 to 0.1 µM. Take `[2H]C([2H])(c1oc2c(NCc3cccs3)cc(Cl)nc2c1C#C)[C@@H](N)CF` [Compound 335, 2-[(R)-2-amino-3-fluoro(1,1-^2H2)propyl]-5-chloro-3-ethynyl-7-thenylamino-1-oxa-4-azaindene]: the EC50 lay in the range of 1e-05 to 0.1 µM. The molecule `[2H]C([2H])(c1oc2c(NCc3cccs3)cc(Cl)nc2c1Cl)[C@@H](N)CF` [Compound 336, 2-[(R)-2-amino-3-fluoro(1,1-^2H2)propyl]-3,5-dichloro-7-thenylamino-1-oxa-4-azaindene] displayed an EC50 of 1e-05 to 0.1 µM. Same read-out and setting: as for `COc1ccccc1CNc1cc(Cl)nc2c(Br)c(C[C@H](C)N)oc12` [Compound 337, 2-[(S)-2-aminopropyl]-3-bromo-5-chloro-7-{[(o-methoxyphenyl)methyl]amino}-1-oxa-4-azaindene], the figure is 10 to 40 µM; as for `C[C@H](N)Cc1oc2c(NCc3ccc(C#N)cc3)cc(Cl)nc2c1Br` [Compound 339, p-({2-[(S)-2-aminopropyl]-3-bromo-5-chloro-1-oxa-4-aza-7-indenylamino}methyl)benzonitrile], 10 to 40 µM. Same read-out and setting: as for `C[C@H](N)Cc1oc2c(NCc3ccc(F)cn3)cc(Cl)nc2c1Br` [Compound 341, 2-[(S)-2-aminopropyl]-3-bromo-5-chloro-7-{[(5-fluoro-2-pyridyl)methyl]amino}-1-oxa-4-azaindene], the figure is 5 to 10 µM. For `C[C@H](N)Cc1oc2c(NCc3ccncc3F)cc(Cl)nc2c1Br` [Compound 342, 2-[(S)-2-aminopropyl]-3-bromo-5-chloro-7-{[(3-fluoro-4-pyridyl)methyl]amino}-1-oxa-4-azaindene], the EC50 was 0.101 to 0.5 µM.

The molecule `COc1cc(CNc2cc(Cl)nc3c(Br)c(C[C@H](C)N)oc23)ccc1F` [Compound 343, 2-[(S)-2-aminopropyl]-3-bromo-5-chloro-7-{[(4-fluoro-3-methoxyphenyl)methyl]amino}-1-oxa-4-azaindene] showed an EC50 of 0.501 to 5 µM. Still for that read-out and setting: as for `O=C(O)c1oc2c(NCc3cccs3)cc(Cl)nc2c1Br` [Compound 347, 3-bromo-5-chloro-7-thenylamino-1-oxa-4-aza-2-indenecarboxylic acid], the figure is 10 to 40 µM; as for `COc1cccc(CNc2cc(Cl)nc3c(Br)c(C[C@H](C)N)oc23)n1` [Compound 348, 2-[(S)-2-aminopropyl]-3-bromo-5-chloro-7-{[(6-methoxy-2-pyridyl)methyl]amino}-1-oxa-4-azaindene], 10 to 40 µM; as for `C[C@H](N)Cc1oc2c(NCc3ccccc3OC(F)(F)F)cc(Cl)nc2c1Br` [Compound 349, 2-[(S)-2-aminopropyl]-3-bromo-5-chloro-7-{[(o-trifluoromethoxyphenyl)methyl]amino}-1-oxa-4-azaindene], 10 to 40 µM.

For `C[C@H](N)Cc1oc2c(NCc3ccc(F)c(F)c3F)cc(Cl)nc2c1Br` [Compound 351, 2-[(S)-2-aminopropyl]-3-bromo-5-chloro-7-{[(2,3,4-trifluorophenyl)methyl]amino}-1-oxa-4-azaindene], the EC50 was 10 to 40 µM. The molecule `CC(O)c1oc2c(NCc3cccs3)cc(Cl)nc2c1Br` (centres unmarked) [Compound 355, 1-(3-bromo-5-chloro-7-((thiophen-2-ylmethyl)amino)furo[3,2-b]pyridin-2-yl)ethan-1-ol] had an EC50 of 5 to 10 µM. The same measure, in the same setting: as for `COC(C)c1oc2c(NCc3cccs3)cc(Cl)nc2c1Br` (centres unmarked) [Compound 356, 3-bromo-5-chloro-2-(1-methoxyethyl)-N-(thiophen-2-ylmethyl)furo[3,2-b]pyridin-7-amine], the figure is 10 to 40 µM.

The subject of the next assay is ATXN3 transcripts containing exon 4. Briefly: ATXN3 Quantitative Splicing Assay (qPCR, E4E5 primers/probe). The settings on record: Homo sapiens, SK-N-MC cells, compounds for 24 h. Format: cell-based. The protocol: Example 34: ATXN3 Quantitative Splicing Assay
Human neuroblastoma SK-N-MC cells were plated in 384-well plates at 20,000 cells/well. Twenty-four hours after plating, cells were treated with compounds for 24 h at appropriate concentrations ranging from 30 μM to 0.6 nM (0.300 DMSO). Treated cells were lysed in 15 μL of lysis buffer, and cDNA was synthesized using the Fast Advanced Cells-to-Ct kit. Two […] of each cDNA was used in qPCR reactions to confirm the exon 4 skipped transcripts of ATXN3. A second set of primers/probe E4E5 was used to detect the transcripts containing exon 4. The third set of primers/probe E8E9 was used to detect total gene level of ATXN3. The qPCR reactions were prepared in 384-well plates in 10 μL volume, using TaqMan™ Fast Advanced Master Mix with primers and probes shown in the table below. Reactions were run in a Quant Studio 6 qPCR instrument with default settings.
The primers and probes are listed below in Table 4.
On the technique in general: In qPCR the cycle at which signal appears reflects the starting amount.
Regarding `N[C@H]1CCCC[C@H]1c1cc2nc(Cl)cc(NCc3cccs3)c2o1` (racemic) [Compound 363, rac-2-[(1R,2S)-2-aminocyclohexyl]-5-chloro-N-(thiophen-2-ylmethyl)furo[3,2-b]pyridin-7-amine], the IC50 was in the range of 501 to 5000 nM. `N[C@H]1CC[C@@H]1c1oc2c(NCc3cccs3)cc(Cl)nc2c1Br` (racemic) [Compound 367, 2-(2-aminocyclobutyl)-3-bromo-5-chloro-N-(thiophen-2-ylmethyl)furo[3,2-b]pyridin-7-amine]: the IC50 is 101 to 500 nM. On to `N[C@@H]1CC[C@H]1c1oc2c(NCc3cccs3)cc(Cl)nc2c1Br` (single isomer, unassigned) [Compound 290], for which the IC50 fell in the range of 501 to 5000 nM. `N[C@H]1CC[C@@H]1c1oc2c(NCc3cccs3)cc(Cl)nc2c1Br` (single isomer, unassigned) [Compound 291] had an IC50 of 101 to 500 nM.

In turn, `N[C@H]1CC(F)(F)C[C@@H]1c1oc2c(NCc3cccs3)cc(Cl)nc2c1Br` (single isomer, unassigned) [Compound 369] showed an IC50 of 5000 to 10000 nM. In turn, `N[C@@H]1CC(F)(F)C[C@H]1c1oc2c(NCc3cccs3)cc(Cl)nc2c1Br` (single isomer, unassigned) [Compound 388] showed an IC50 of 101 to 500 nM. With `C[C@H](F)[C@H](N)Cc1oc2c(NCc3cccs3)cc(C#N)nc2c1Cl` [Compound 104, 2-[(2R,3S)-2-amino-3-fluorobutyl]-3-chloro-7-thenylamino-1-oxa-4-aza-5-indenecarbonitrile], the IC50 lay within 101 to 500 nM. For the molecule `N[C@H]1CCC[C@@H]1c1oc2c(NCc3cccs3)cc(Cl)nc2c1Br` [Compound 170, 2-[(1S,2S)-2-aminocyclopentyl]-3-bromo-5-chloro-7-thenylamino-1-oxa-4-azaindene], the half-maximal inhibitory concentration (IC50) lay within 0.01 to 100 nM. Regarding `N[C@@H]1CCC[C@H]1c1oc2c(NCc3cccs3)cc(Cl)nc2c1Br` [Compound 172, 2-[(1R,2R)-2-aminocyclopentyl]-3-bromo-5-chloro-7-thenylamino-1-oxa-4-azaindene], the IC50 was 501 to 5000 nM. Still for that read-out and setting: the same measure for `N[C@H]1CCCC[C@@H]1c1oc2c(NCc3cccs3)cc(Cl)nc2c1Br` [Compound 174, 2-[(1,2S)-2-aminocyclohexyl]-3-bromo-5-chloro-7-thenylamino-1-oxa-4-azaindene]: 0.01 to 100 nM; for `N[C@@H]1CCCC[C@H]1c1oc2c(NCc3cccs3)cc(Cl)nc2c1Br` [Compound 176, 2-[(1R,2R)-2-aminocyclohexyl]-3-bromo-5-chloro-7-thenylamino-1-oxa-4-azaindene]: 501 to 5000 nM; for `C#Cc1c(C[C@@H](N)[C@H](C)F)oc2c(NCc3cccs3)c(F)c(Cl)nc12` [Compound 278, 2-[(2R,3S)-2-amino-3-fluorobutyl]-5-chloro-3-ethynyl-6-fluoro-7-thenylamino-1-oxa-4-azaindene]: 101 to 500 nM. On the same count and under the same terms, the same measure for `C[C@H](N)Cc1oc2c(NCc3ccco3)cc(Cl)nc2c1C(=O)N(C)C` [Compound 357, 2-[(2S)-2-aminopropyl]-5-chloro-7-[(furan-2-ylmethyl)amino]-N,N-dimethylfuro[3,2-b]pyridine-3-carboxamide]: 10000 to 40000 nM; for `CNC(=O)c1c(C[C@H](C)N)oc2c(NCc3ccco3)cc(Cl)nc12` [Compound 358, 2-[(2S)-2-aminopropyl]-5-chloro-7-[(furan-2-ylmethyl)amino]-N-methylfuro[3,2-b]pyridine-3-carboxamide]: 10000 to 40000 nM. In turn, `COc1cccc(CNc2cc(Cl)nc3c(Br)c(C[C@H](C)N)oc23)c1F` [Compound 359, 2-[(S)-2-aminopropyl]-3-bromo-5-chloro-7-{[(2-fluoro-3-methoxyphenyl)methyl]amino}-1-oxa-4-azaindene] returned an IC50 of 10000 to 40000 nM. `COCc1oc2c(NCc3cccs3)cc(Cl)nc2c1Br` [Compound 360, 3-bromo-5-chloro-2-(methoxymethyl)-N-(thiophen-2-ylmethyl)furo[3,2-b]pyridin-7-amine] came in with an IC50 of 5000 to 10000 nM. As for `COc1cc(CNc2cc(Cl)nc3c(Br)c(C[C@H](C)N)oc23)ccn1` [Compound 361, 2-[(S)-2-aminopropyl]-3-bromo-5-chloro-7-{[(2-methoxy-4-pyridyl)methyl]amino}-1-oxa-4-azaindene], the IC50 lay in the range of 10000 to 40000 nM.

`COc1cccc(CNc2cc(Cl)nc3c(Br)c(C[C@H](C)N)oc23)c1` [Compound 362, 2-[(S)-2-aminopropyl]-3-bromo-5-chloro-7-{[(m-methoxyphenyl)methyl]amino}-1-oxa-4-azaindene] registered an IC50 of 5000 to 10000 nM.

The EC50 is the concentration needed to bring the measured effect to its halfway point. A low value points to a more potent agent. What is called IC50 is the concentration that gives 50% inhibition. Read a low IC50 as greater potency in that assay.
